According to patent US20060130266A1, “Dermal drug delivery system” (priority 2004, published 2006):
Marks after values point to notes of the source that are not given here.

Key:
[1] = In vitro skin permeation, Franz cell infinite dose study (optimisation studies with MP, BP, CF); conditions: for EF enhancement factor: flux vs untreated skin
[2] = octanol/water; cited from earlier work
[3] = In vitro skin permeation, Franz cell pseudo-finite dose study (acyclovir and CF); format: in vitro ADME, human; conditions: pseudo-finite dose
Method: Zovirax® spiked with ^3H-ACV was used as the formulation for the entire study. Briefly, 300 μl of ^3H ACV was placed into a 1.5 ml centrifuge tube and evaporated off, over a stream of air. Approximately 1 g of Zovirax® was weighed into the centrifuge tube and carefully mixed with a fine spatula to achieve a homogenous mix. To test for homogeneity, 3 random samples (top, middle and bottom) were taken and determined for radioactivity via scintillation counting.
Anodal treatment was conducted by placing the anode electrode in the donor compartment and the opposite electrode (cathode) in the receptor compartment of the Franz cell. Cathodal iontophoresis was conducted vice versa. The current treatment protocols employed were either • (a) iontophoresis: dose was administered simultaneously with current or • (b) post-iontophoresis: dose applied immediately after skin exposure to current. • A current intensity of 0.40 mA was employed for a 10 min period during both protocols. Novel Device (Rotatinig Brush) Procedure
Finite dose permeation experiments were performed using similar conditions as described above. The Franz cell studies were carried out without the use of a donor well, in order to allow for the placement of the iontophoretic device over the epidermal membrane. […] The effectiveness of the seal was confirmed if leakage of receptor fluid from the region of contact between skin and adhesive was not observed.
A formulation with a target dose of approximately 9±1 mg/cm^2 (ACV) and 20±2 mg/cm^2 (CF) was applied to the epidermal membrane surface using a previously calibrated positive displacement pipette. Selected control experiments were then performed as described above (anodal and cathodal iontophoresis was performed by simultaneous application of dose and current over a 10 min period for CF and ACV respectively). At certain time intervals 200 μl of the receiver fluid was carefully withdrawn from the receiver fluid (maximum duration of 4 h). Approximately 4 ml of scintillation cocktail was then added and the ACV sample analysed by scintillation counting, whereas the other penetrant was assayed via the HPLC method already described.

[4] = Table 4b, BP, brush A 450 Nm^−2, 20 s, 80 rpm
[5] = Table 4b, BP, brush A 450 Nm^−2, 45 s, 80 rpm
[6] = Table 4b, BP, brush A 750 Nm^−2, 45 s, 80 rpm
[7] = Table 4b, BP, brush A 1200 Nm^−2, 45 s, 80 rpm
[8] = Table 5c, BP, EtoH/PBS (50% ethanol donor solution)
[9] = Table 5c, BP, brush A 450 Nm^−2, 45 s
[10] = Table 5c, BP, brush B 300 Nm^−2, 15 s
[11] = Table 5c, BP, brush B 300 Nm^−2, 25 s
[12] = Table 5c, BP, brush B 450 Nm^−2, 15 s
[13] = Table 5c, BP, tapestripped skin
[14] = Table 4a, CF, brush A 450 Nm^−2/20 s, 80 rpm
[15] = Table 4a, CF, brush A 450 Nm^−2/45 s, 80 rpm
[16] = Table 4a, CF, brush A 1200 Nm^−2/45 s, 80 rpm
[17] = Table 5a, CF, EtOH/PBS (50% ethanol donor solution)
[18] = Table 5a, CF, brush A 450 Nm^−2, 45 s, 80 rpm
[19] = Table 5a, CF, brush B 300 Nm^−2, 15 s, 80 rpm
[20] = Table 5a, CF, brush B 300 Nm^−2, 25 s, 80 rpm

Compound: CCCCOC(=O)c1ccc(O)cc1 [BP, Butyl paraben]
- JS flux [1, 4]: 6.60 ± 0.49* 10^−3 μg/cm/s
- KP permeability coefficient [1, 4]: 3.30 ± 0.25 10^−5 cm/s
- TL lag time [1, 4]: 37.10 ± 2.26 min
- EF enhancement factor [1, 4]: 1.74
- JS flux [1, 5]: 7.50 ± 0.75* 10^−3 μg/cm/s
- KP permeability coefficient [1, 5]: 3.75 ± 0.37 10^−5 cm/s
- TL lag time [1, 5]: 25.22 ± 2.17 min
- EF enhancement factor [1, 5]: 1.97
- JS flux [1, 6]: 8.26 ± 0.89* 10^−3 μg/cm/s
- KP permeability coefficient [1, 6]: 4.13 ± 0.45 10^−5 cm/s
- TL lag time [1, 6]: 26.34 ± 1.48 min
- EF enhancement factor [1, 6]: 2.17
- JS flux [1, 7]: 8.62 ± 1.05* 10^−3 μg/cm/s
- KP permeability coefficient [1, 7]: 4.31 ± 0.52 10^−5 cm/s
- TL lag time [1, 7]: 26.39 ± 1.30 min
- EF enhancement factor [1, 7]: 2.26
- JS flux ([1]; Table 4b, BP, delipidised skin): 15.95 ± 1.55* 10^−3 μg/cm/s
- KP permeability coefficient ([1]; Table 4b, BP, delipidised skin): 7.98 ± 0.78 10^−5 cm/s
- TL lag time ([1]; Table 4b, BP, delipidised skin): 18.58 ± 3 min
- EF enhancement factor ([1]; Table 4b, BP, delipidised skin): 4.20
- KP permeability coefficient ([1]; Table 4b, BP, untreated skin): 1.90 ± 0.23 10^−5 cm/s
- TL lag time ([1]; Table 4b, BP, untreated skin): 33.47 ± 8.79 min
- KP permeability coefficient [1, 8]: 9.24 ± 0.80 10^−5 cm/s
- TL lag time [1, 8]: 26.43 ± 5.05 min
- EF enhancement factor ([1]; Table 5c, BP, EtoH/PBS): 3.75
- JS flux [1, 9]: 8.38 ± 1.09* 10^−4 μg/cm/s
- KP permeability coefficient [1, 9]: 4.19 ± 0.54 10^−5 cm/s
- TL lag time [1, 9]: 24.51 ± 5.50 min
- EF enhancement factor [1, 9]: 1.69
- JS flux [1, 10]: 6.16 ± 0.89* 10^−4 μg/cm/s
- KP permeability coefficient [1, 10]: 3.08 ± 0.44 10^−5 cm/s
- TL lag time [1, 10]: 22.65 ± 3.22 min
- EF enhancement factor [1, 10]: 1.25
- JS flux [1, 11]: 10.47 ± 0.96* 10^−4 μg/cm/s
- KP permeability coefficient [1, 11]: 5.23 ± 0.48 10^−5 cm/s
- TL lag time [1, 11]: 23.06 ± 2.19 min
- EF enhancement factor [1, 11]: 2.12
- KP permeability coefficient [1, 12]: 6.34 ± 1.03 10^−5 cm/s
- TL lag time [1, 12]: 14.55 ± 5.18 min
- EF enhancement factor [1, 12]: 2.57
- KP permeability coefficient ([1]; Table 5c, BP, delipidised skin): 10.27 ± 1.43 10^−5 cm/s
- TL lag time ([1]; Table 5c, BP, delipidised skin): 8.17 ± 5.41 min
- EF enhancement factor ([1]; Table 5c, BP, delipidised skin): 4.16
- KP permeability coefficient [1, 13]: 7.80 ± 1.84 10^−5 cm/s
- TL lag time [1, 13]: 34.78 ± 4.44 min
- EF enhancement factor [1, 13]: 3.16
- KP permeability coefficient ([1]; Table 5c, BP, untreated skin): 2.47 ± 0.11 10^−5 cm/s
- TL lag time ([1]; Table 5c, BP, untreated skin): 35.84 ± 1.98 min
- Log P (o/w) [2]: 3.57

Compound: Cn1c(=O)c2c(ncn2C)n(C)c1=O [CF, Caffeine]
- Reduction of lag times relative to original value ([1]; CF, brush A, altering pressure or duration of treatment): ~75%
- KP permeability coefficient [1, 14]: 5.04 ± 1.30 10^−8 cm/s
- TL lag time [1, 14]: 68.33 ± 17.76 min
- EF enhancement factor [1, 14]: 1.47
- JS flux ([1]; Table 4a, CF, brush A 450 Nm^−2/20 s, 80 rpm, n = 2): 10.3 ± 2.67^p 10^−4 μg/cm/s
- JS flux [1, 15]: 16.3 ± 0.86* 10^−4 μg/cm/s
- KP permeability coefficient [1, 15]: 7.95 ± 0.42 10^−8 cm/s
- TL lag time [1, 15]: 41.21 ± 8.09 min
- EF enhancement factor [1, 15]: 2.34
- JS flux [1, 16]: 18.4 ± 8.93* 10^−4 μg/cm/s
- KP permeability coefficient [1, 16]: 8.97 ± 4.06 10^−8 cm/s
- TL lag time [1, 16]: 16.74 ± 6.50 min
- EF enhancement factor [1, 16]: 2.64
- JS flux ([1]; Table 4a, CF, delipidised skin): 52.25 ± 25.17* 10^−4 μg/cm/s
- KP permeability coefficient ([1]; Table 4a, CF, delipidised skin): 25.66 ± 12.28 10^−8 cm/s
- TL lag time ([1]; Table 4a, CF, delipidised skin): 4.19 ± 1.39 min
- EF enhancement factor ([1]; Table 4a, CF, delipidised skin): 7.47
- KP permeability coefficient ([1]; Table 4a, CF, untreated skin): 3.39 ± 0.75 10^−8 cm/s
- TL lag time ([1]; Table 4a, CF, untreated skin): 77.66 ± 12.96 min
- KP permeability coefficient [1, 17]: 141.4 ± 31.21 10^−8 cm/s
- TL lag time [1, 17]: 26.71 ± 9.26 min
- EF enhancement factor ([1]; Table 5a, CF, EtOH/PBS): 15.46
- JS flux [1, 18]: 8.52 ± 0.29* 10^−4 μg/cm/s
- KP permeability coefficient [1, 18]: 41.61 ± 14.19 10^−8 cm/s
- TL lag time [1, 18]: 16.74 ± 3.99 min
- EF enhancement factor [1, 18]: 4.55
- KP permeability coefficient [1, 19]: 342.4 ± 170.1 10^−8 cm/s
- EF enhancement factor [1, 19]: 37.41
- KP permeability coefficient [1, 20]: 589.93 ± 207.62 10^−8 cm/s
- EF enhancement factor [1, 20]: 64.44
- KP permeability coefficient ([1]; Table 5a, CF, delipidised skin): 99.68 ± 26.84 10^−8 cm/s
- EF enhancement factor ([1]; Table 5a, CF, delipidised skin): 10.93
- TL lag time ([1]; Table 5a, CF, untreated skin): 19.69 ± 3.54 min
- Amount of CF in receptor after 30 min compared with other methods of enhancement ([3]; brush B 300 Nm^−2/25 s): at least double
- Amount of CF deposited in receptor compartment compared with untreated skin ([3]; chemical enhancement method (50% ethanol)): not to be significantly different
- Time after which presence of CF in receptor was determined ([3]; untreated skin and chemical enhancement, limit of detection 0.05 ug/ml): 120 min
